# Results taken from patent US20240409505A1, “GLUCONAMIDE SULFATE SURFACTANTS” (The Procter & Gamble Company, priority 2023, published 2024).
# Structures can show the parent of a compound that is named as a salt.
# Test: Final product mixed with Deionized Water at room temperature
# Type: physicochemical
# Details: 0.0130 g of final product mixed with 1.287 g of Deionized Water at room temperature
# From the text: Vacuum filtered solution through Grade 4 filter paper to obtain a clear, colorless solution. […] The solution was concentrated using a rotary evaporator until mixture began to foam, then solution was transferred to a glass crystallizing dish and placed in a vacuum oven at room temperature under a partial vacuum of 3 inches of Hg internal oven pressure.
row,Compound,appearance of mixture with Deionized Water (solubility)
1,"CCCCCCCCCCCCNC(=O)[C@H](O)[C@@H](O)[C@H](O)[C@H](O)COS(=O)(=O)O [Example 1, Sodium (2R,3R,4S,5R)-6-(dodecylamino)-2,3,4,5-tetrahydroxy-6-oxohexyl sulfate]","completely clear, colorless solution that foamed when shaken"
2,"CCCCCCCCCCCCCCNC(=O)[C@H](O)[C@@H](O)[C@H](O)[C@H](O)COS(=O)(=O)O [Example 2, Sodium (2R,3R,4S,5R)-6-(tetradecylamino)-2,3,4,5-tetrahydroxy-6-oxohexyl sulfate]","completely clear, colorless solution that foamed when shaken"
3,"O=C(NCc1ccccc1)[C@H](O)[C@@H](O)[C@H](O)[C@H](O)COS(=O)(=O)O [Example 7, Sodium (2R,3R,4S,5R)-6-(benzylamino)-2,3,4,5-tetrahydroxy-6-oxohexyl Sulfate]","completely clear, colorless solution that foamed when shaken"
4,"CCCCCCCCCCCCCCCCNC(=O)[C@H](O)[C@@H](O)[C@H](O)[C@H](O)COS(=O)(=O)O [Example 3, Sodium (2R,3R,4S,5R)-6-(hexadecylamino)-2,3,4,5-tetrahydroxy-6-oxohexyl sulfate]","completely clear, colorless solution that foamed when shaken"
5,"Sodium (2R,3R,4S,5R)-6-((2-1H-indol-2-yl)ethyl) amino)-2,3,4,5-tetrahydroxy-6-Oxohexyl Sulfate [Example 8]","completely clear, colorless solution that foamed when shaken"
6,"CCCCCCCC/C=C\CCCCCCCCNC(=O)[C@H](O)[C@@H](O)[C@H](O)[C@H](O)COS(=O)(=O)O [Example 4, Sodium (2R,3R,4S,5R)-2,3,4,5-tetrahydroxy-6-(((Z)-octadec-9-en-1-yl)amino)-6-oxohexyl sulfate]","completely clear, colorless solution that foamed when shaken"
